Test results as given in ChEMBL document CHEMBL5634151, “Anti-adipogenic action of a novel oxazole derivative through activation of AMPK pathway” (Eur J Med Chem, 2023).
Calls of active or inactive are those of the source. The rule behind the calls is not given here.

Key:
3T3-L1 [1] = test: Upregulation of CI-NDUFB8 protein expression in mouse 3T3-L1 mature adipocytes at 1 to 5 uM incubated for 24 hrs by Western blot analysis; format: functional, cell-based; details: dose 1-5 µM
3T3-L1 [2] = test: Inhibition of MDI-cocktail induced adipogenic differentiation in mouse 3T3-L1 pre-adipocyte cells assessed as reduction in lipid bound stain absorbance at 0.5 to 25 uM by Oil Red O staining based microscopic analysis; format: functional, cell-based; details: dose 0.5-25 µM
3T3-L1 [3] = test: Anti-adipogenic activity in MDI-cocktail differentiated mouse 3T3-L1 pre-adipocyte cells assessed as reduction in adipogenic differentiation at 5 uM measured after 0 to 5 days by Oil Red O staining based microscopic analysis; format: functional, cell-based; details: time 0-5 day
3T3-L1 [4] = test: Inhibition of MDI-cocktail induced adipogenic differentiation in mouse 3T3-L1 pre-adipocyte cells assessed as inhibition of lipid accumulation by Oil Red O staining based microscopic analysis; format: functional, cell-based; details: dose 0.5-20 µM
3T3-L1 [5] = test: Induction of mitochondrial respiration in MDI-cocktail differentiated mouse 3T3-L1 pre-adipocyte cells assessed as increase in oxygen consumption rate at 5 uM incubated for 72 hrs in presence of oligomycin by Seahorse XFp flux analyzer; format: functional, cell-based
3T3-L1 [6] = test: Cytotoxicity against mouse 3T3-L1 pre-adipocyte cells assessed as reduction in cell viability 100 uM incubated for 48 hrs by MTT assay; format: toxicity, cell-based; details: 3t3-l1, 48 h
3T3-L1 [7] = test: Upregulation of CV-ATP5A protein expression in mouse 3T3-L1 mature adipocytes at 1 to 5 uM incubated for 24 hrs by Western blot analysis; format: functional, cell-based; details: dose 1-5 µM
3T3-L1 [8] = test: Inhibition of MDI-cocktail induced mTOR phosphorylation at Ser2448 residue in mouse 3T3-L1 pre-adipocyte cells at 5 uM by immunoblotting analysis; format: cell-based
3T3-L1 [9] = test: Induction of spare respiratory capacity during early phase in MDI-cocktail differentiated mouse 3T3-L1 pre-adipocyte cells 5 uM incubated for 72 hrs by Seahorse XFp flux analyzer; format: functional, cell-based
C3H 10T1/2 [10] = test: Anti-adipogenic activity in MDI-cocktail differentiated mouse C3H 10T1/2 cells assessed as reduction in adipogenic differentiation at 5 uM measured after 0 to 5 days by Oil Red O staining based microscopic analysis; format: functional, cell-based; details: time 0-5 day
3T3-L1 [11] = test: Cytotoxicity against mouse 3T3-L1 pre-adipocyte cells assessed as reduction in cell viability upto 50 uM incubated for 48 hrs by MTT assay; format: toxicity, cell-based; details: 3t3-l1, 48 h
3T3-L1 [12] = test: Inhibition of MDI-cocktail induced adipogenic differentiation in mouse 3T3-L1 pre-adipocyte cells assessed as reduction in FASN protein expression at 0.5 to 5 uM by Western blot analysis; format: functional, cell-based; details: dose 0.5-5 µM
Syrian golden hamster [13] = test: Anti-obesity activity in high-fat diet induced Syrian golden hamster model assessed as reduction in adipose hypertrophy at 50 mg/kg, po administered for 7 days by H and E staining based inverted microscopic analysis; format: functional, organism-based; details: Mesocricetus auratus, time 7.0 day
3T3-L1 [14] = test: Inhibition of MDI-cocktail induced AKT phosphorylation at Ser473 residue in mouse 3T3-L1 pre-adipocyte cells at 5 uM by immunoblotting analysis; format: cell-based
3T3-L1 [15] = test: Activation of AMPK pathway in MDI-cocktail differentiated mouse 3T3-L1 pre-adipocyte cells assessed as reversal of 6-(4-(2-(piperidin-1-yl)ethoxy)phenyl)-3-(pyridin-4yl)pyrazolo[1,5-a]pyrimidine induced AMPK inhibition at 5 uM incubated for 72 hrs by immunoblotting analysis; format: cell-based; details: filed as activator
Syrian golden hamster [16] = test: Anti-dyslipidaemic activity in high-fat diet induced Syrian golden hamster model assessed as assessed as reduction in serum total cholesterol level at 25 to 50 mg/kg, po administered for 7 days; format: functional, organism-based; details: Mesocricetus auratus, dose 25-50 mg/kg, time 7.0 day
C3H 10T1/2 [17] = test: Anti-adipogenic activity in MDI-cocktail differentiated mouse C3H 10T1/2 cells assessed as reduction in adipogenic differentiation at 5 uM measured after 0 to 7 days by Oil Red O staining based microscopic analysis; format: functional, cell-based; details: time 0-7 day
3T3-L1 [18] = test: Anti-adipogenic activity in MDI-cocktail differentiated mouse 3T3-L1 pre-adipocyte cells assessed as reduction in adipogenic differentiation at 5 uM measured after 0 to 3 days by Oil Red O staining based microscopic analysis; format: functional, cell-based; details: time 0-3 day
3T3-L1 [19] = test: Anti-adipogenic activity in MDI-cocktail differentiated mouse 3T3-L1 pre-adipocyte cells assessed as reduction in adipogenic differentiation at 5 uM measured after 3 to 7 days by Oil Red O staining based microscopic analysis; format: functional, cell-based; details: time 3-7 day
3T3-L1 [20] = test: Anti-adipogenic activity in MDI-cocktail differentiated mouse 3T3-L1 pre-adipocyte cells assessed as increase in AMPK phosphorylation at Thr172 residue at 5 uM measured for 3 to 7 days by immunoblotting analysis; format: functional, cell-based; details: time 3-7 day
3T3-L1 [21] = test: Anti-adipogenic activity in MDI-cocktail differentiated mouse 3T3-L1 pre-adipocyte cells assessed as inhibition of adipogenesis by Oil Red O staining based microscopic analysis; format: functional, cell-based
3T3-L1 [22] = test: Anti-adipogenic activity in MDI-cocktail differentiated mouse 3T3-L1 pre-adipocyte cells assessed as reduction in PPARgamma protein expression at 5 uM measured for 3 to 7 days by immunoblotting analysis; format: functional, cell-based; details: time 3-7 day
Mesocricetus auratus = test: In vivo activation of AMPK in high-fat diet induced Syrian golden hamster model assessed as increase in AMPK phosphorylation at Th172 residue in eWAT at 50 mg/kg, po administered for 7 days by Western blot analysis; format: functional, organism-based; details: time 7.0 day
3T3-L1 [23] = test: Inhibition of MDI-cocktail induced adipogenic differentiation in mouse 3T3-L1 pre-adipocyte cells assessed as reduction in PPARgamma gene expression at 5 uM by qRT-PCR analysis; format: functional, cell-based
3T3-L1 [24] = test: Cytotoxicity against mouse 3T3-L1 pre-adipocyte cells assessed as reduction in cell viability >20 uM incubated for 48 hrs by MTT assay; format: toxicity, cell-based; details: 3t3-l1, 48 h
3T3-L1 [25] = test: Induction of mitochondrial respiration in MDI-cocktail differentiated mouse 3T3-L1 pre-adipocyte cells assessed as increase in oxygen consumption rate at 5 uM incubated for 72 hrs in presence of FCCP by Seahorse XFp flux analyzer; format: functional, cell-based
3T3-L1 [26] = test: Induction of basal respiration during early phase in MDI-cocktail differentiated mouse 3T3-L1 pre-adipocyte cells 5 uM incubated for 72 hrs by Seahorse XFp flux analyzer; format: functional, cell-based
3T3-L1 [27] = test: Anti-adipogenic activity in MDI-cocktail differentiated mouse 3T3-L1 pre-adipocyte cells assessed as inhibition of adipogenesis at 0.1 uM by Oil Red O staining based microscopic analysis; format: functional, cell-based
3T3-L1 [28] = test: Induction of maximum respiration during early phase in MDI-cocktail differentiated mouse 3T3-L1 pre-adipocyte cells 5 uM incubated for 72 hrs by Seahorse XFp flux analyzer; format: functional, cell-based
C3H 10T1/2 [29] = test: Anti-adipogenic activity in MDI-cocktail differentiated mouse C3H 10T1/2 cells assessed as reduction in adipogenic differentiation at 5 uM measured after 5 to 7 days by Oil Red O staining based microscopic analysis; format: functional, cell-based; details: time 5-7 day
C3H 10T1/2 [30] = test: Inhibition of MDI-cocktail induced adipogenic differentiation in mouse C3H 10T1/2 cells assessed as reduction in lipid bound stain absorbance at 0.5 to 25 uM by Oil Red O staining based microscopic analysis; format: functional, cell-based; details: dose 0.5-25 µM
3T3-L1 [31] = test: Anti-adipogenic activity in MDI-cocktail differentiated mouse 3T3-L1 pre-adipocyte cells assessed as reduction in FASN protein expression at 5 uM measured for 3 to 7 days by immunoblotting analysis; format: functional, cell-based; details: time 3-7 day

Structure (SMILES): Cc1ccc(-c2cnc(-c3ccc[n+](Cc4cccc(C)c4)c3)o2)cc1.[Br-]
- Activity (3T3-L1 [1]): Active
- inhibition (3T3-L1 [2]): Active
- Activity (3T3-L1 [3]): Active
- inhibition (3T3-L1 [4]): Active
- Activity (3T3-L1 [5]): Active
- Activity (3T3-L1 [6]): Toxic
- Activity (3T3-L1 [7]): Active
- inhibition (3T3-L1 [8]): Active
- Activity (3T3-L1 [9]): Active
- Activity (C3H 10T1/2 [10]): Active
- Activity (3T3-L1 [11]): Non-Toxic
- inhibition (3T3-L1 [12]): Active
- Activity (Syrian golden hamster [13]): Active
- inhibition (3T3-L1 [14]): Active
- Activity (3T3-L1 [15]): Active
- Activity (Syrian golden hamster [16]): Active
- Activity (C3H 10T1/2 [17]): Active
- Activity (3T3-L1 [18]): Active
- Activity (3T3-L1 [19]): Active
- Activity (3T3-L1 [20]): Active
- IC50 (3T3-L1 [21]; read-out: IC50): 390 nM
- IC50 (3T3-L1 [21]; read-out: pIC50 (converted)): 390 nM
- Activity (3T3-L1 [22]): Active
- Activity (Mesocricetus auratus): Active
- inhibition (3T3-L1 [23]): Active
- Activity (3T3-L1 [24]): Non-Toxic
- Activity (3T3-L1 [25]): Active
- Activity (3T3-L1 [26]): Active
- Activity (3T3-L1 [27]): Active
- Activity (3T3-L1 [28]): Active
- Activity (C3H 10T1/2 [29]): Active
- inhibition (C3H 10T1/2 [30]): Active
- Activity (3T3-L1 [31]): Active
